In ChEMBL document CHEMBL1133360, “Design, synthesis, and biological activity of a cyclic peptide: an inhibitor of HIV-1 tat-TAR interactions in human cells” (Bioorg Med Chem Lett, 2000):
Where a SMILES comes first, the peptide text is derived from it. [ ]: non-standard residue; d: D form.

Experiments:
[1] = Inhibitory activity of compound was tested against transcriptional activation by Tat protein in human cells; assay type: functional, cell-based
Homo sapiens = organism: Homo sapiens; experiment: Percent of Tat-activation inhibited at 500 uM of the compound; assay type: functional

In the case of NCCCC[C@@H]1NC(=O)[C@@H](N)CCCCNC(=O)CC[C@@H](C(=O)O)NC(=O)[C@H](CC(N)=O)NC(=O)[C@@H](CCCCN)NC1=O, the IC50 [1] is reported as ~40 nM and the inhibition (Homo sapiens) is reported as > 90%.
Compound NCCCC[C@H](N)C(=O)N[C@H](CCCCN)C(=O)N[C@@H](CC(N)=O)C(=O)O (H-Lys-[dK]-Asn-OH) has an IC50 [1] of ~50 nM.
